Data from patent publication US4868195A, “Novel enolamides, pharmaceutical compositions and methods of use thereof for activity as modulators of the arachidonic acid cascade” (Warner-Lambert Company, priority 1988, dated 1989).

Key:
[1] = target: Human Leukocyte Lipoxygenase; test: Human Leukocyte Lipoxygenase Assay (LDA-H); format: biochemical; conditions: acetone-pentane powder enzyme, 234 nm, 24° C., 5 min preincubation; read-out: Concentration (M) for 50.0 % Inhibition, IC (LDAH)
How it was run: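 Enzyme from acetone-pentane powder of human buffy-coat leukocytes, extracted in 0.1M Tris pH 7.4. Compound preincubated 5 min with enzyme, then reaction started with arachidonic or linoleic acid (100 μM or 1.0 μM) and followed at 234 nm (conjugated diene) at 24° C. IC50 is molar concentration halving control rate.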

[2] = target: T1, human leukocyte 5-lipoxygenase (Homo sapiens, UniProt P09917); test: 5-lipoxygenase inhibition in human leukocytes, 5-HETE formation (5LOA; methods 5LOA1 and 5LOA2); format: cell-based; conditions: 5-HETE formation, human leukocytes; read-out: Concentration (M) for 50.0 % Inhibition, IC (5LOA)
T1 construct: endogenous in cells; host or cells: intact leukocytes isolated from human blood
T1 sequence (P09917 1-674): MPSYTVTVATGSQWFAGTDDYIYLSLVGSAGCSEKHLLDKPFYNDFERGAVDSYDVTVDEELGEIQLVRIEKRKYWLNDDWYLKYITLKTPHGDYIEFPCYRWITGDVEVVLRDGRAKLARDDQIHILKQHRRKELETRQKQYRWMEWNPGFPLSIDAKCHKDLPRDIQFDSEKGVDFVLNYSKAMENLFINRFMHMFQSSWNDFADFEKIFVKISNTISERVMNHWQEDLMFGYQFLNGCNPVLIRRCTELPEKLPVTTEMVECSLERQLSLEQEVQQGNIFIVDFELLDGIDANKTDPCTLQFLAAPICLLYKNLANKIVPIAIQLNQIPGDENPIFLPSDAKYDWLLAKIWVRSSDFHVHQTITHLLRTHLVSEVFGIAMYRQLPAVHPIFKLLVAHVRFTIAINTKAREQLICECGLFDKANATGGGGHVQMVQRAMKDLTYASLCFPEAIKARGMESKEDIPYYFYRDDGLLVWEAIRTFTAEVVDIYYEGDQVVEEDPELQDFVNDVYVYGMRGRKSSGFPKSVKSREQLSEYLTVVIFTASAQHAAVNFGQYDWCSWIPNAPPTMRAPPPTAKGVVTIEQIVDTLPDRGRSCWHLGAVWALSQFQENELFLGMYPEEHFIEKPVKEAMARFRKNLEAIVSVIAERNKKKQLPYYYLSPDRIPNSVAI
Source text: To Evaluate the Effect of Each Compounds as a 5-Lipoxygenase Inhibitor in Comparison to Standard Reference Agents in Human Leukocytes (5LOA1)
The purpose of this assay is to evaluate the activity of each compound as an inhibitor of human leukocyte 5-lipoxygenase.
Arachidonic acid and calcium ionophore A23187 are obtained from Sigma (St. Louis, MO). Silica gel plates, GF are obtained from Analtech (Newark, DE). Arachidonic acid, (1-^14 C) and 5-HETE (^3 H), 5 (S)-hydroxy-6-trans,8,11,14-cis eicosatetraenoic acid, are obtained from New England Nuclear (Boston, MA). Six percent Dextran-70 in 0.9% NaCl is obtained from Cutter Labs (Berkeley, CA).
Preparation of Leukocytes
Fresh blood from normal adult men who had not received any drugs for at least the previous five days is obtained by the Community Research Clinic (WL/PD) using venipuncture and collected into heparinized vacuotainer tubes. To every 100 ml of pooled blood is added 25 ml of dextran solution (6% dextran -70 in 0.9% sodium chloride containing 3% dextrose) and this is mixed gently in a plastic cylinder. The mixture is left to stand at room temperature for at least 90 minutes. The upper layer which is rich in leukocytes and platelets is then carefully decanted into 50 ml plastic tubes and centrifuged at about 100×g for eight minutes in an IEC centrifuge and rotor number 269 (about 600 rpm). The supernatant fluid is discarded and the pellet is resuspended in 10 ml of 0.87% ammonium chloride for exactly two minutes. This procedure is to lyse completely contaminating red blood cells. Leukocytes are then separated by centrifugation for ten minutes. The pellet is washed three times by suspension in 20 ml PBS (sodium chloride, 7.1 g; Na2 HPO4, 1.15 g; KH2 PO4, 0.2 g, and KCl, 0.2 g/L) and centrifuged as before. The final pellet is suspended in PBS containing 0.87 mM CaCl2. Viability of the cells is then checked using trypan blue exclusion method and is found to be over 90%.
5-Lipoxygenase Enzyme Assay
Leukocyte cells in suspension (0.98 ml) are incubated with or without test compounds for five minutes at 37° C. in a shaking water bath. At this time a 17 μl mixture is prepared per 1 ml of cell suspension: 100 mM arachidonic acid, 1 μl, 0.05 μCi ^14 C-arachidonic acid in 5 μl; 1 mM calcium ionophore A23187, 10 μl (1). This mixture is added and the incubation continued for five minutes. The reaction is stopped by adding four volumes of absolute ethanol and the mixture is kept in ice for 30 minutes. The floculated precipitate is separated by centrifugation at about 37,000×g for 20 minutes (Beckman Instruments rotor number 40). The alcohol extract is taken to dryness under a stream of nitrogen and the residue is dissolved in 100-200 μl absolute ethanol. At the time any turbidity is removed by centrifugation. An aliquot (25-50 μl) is applied onto 20×20 cm silica gel TLC plate and developed using the following solvent system: diethyl ether, petroleum ether (2040° C.), acetic acid (50:50:1 v/v). Zones of 1 cm apart are scraped from the TLC plate and transferred to mini-vials. Methanol (0.5 ml) is added to dissolve the radioactivity adsorbed to the silica gel and scintillation fluid (H. P., Beckman), 5 ml is then added and vials are counted in a liquid scintillation counter. A sample of ^3 H-5-HETE is applied and used for the identification of the formed 5-HETE.
Total radioactivity in the test as well as the control samples are normalized and the amount of 5-HETE present is calculated accordingly.
IC50 values are defined as the concentrations of test agents which caused a 50% inhibition of the formation of 5-HETE as compared to control and are determined by inspection of the concentration-response curves.
5-Lipoxygenase Assay Using Isolated Human Leukocytes (5LOA2)
The formation of 5-HETE in human leukocytes is considered a measure of 5-lipoxygenase activity. The protocol is described in the following. […]

Row | IC50 [1] [M] | IC50 [2] [M] | SMILES
1 | 6.1e-06 | 4.01e-06 | O=C(Nc1ccc(CCc2ccc(O)c(O)c2)cc1)c1oc2c(ccc3ccccc32)c1O [Example 125, Naphtho[1,2-b]furan-2-carboxamide, N-[4-[2-(3,4-dihydroxyphenyl)ethyl]phenyl]-3-hydroxy]
2 | 1.6e-06 | 7.6e-06 | COc1ccc(CCc2ccc(NC(=O)C(=O)c3oc4ccccc4c3O)cc2)cc1OC [Example 121, 2-Benzofuranacetamide, N-[4-[2-(3,4-dimethoxyphenyl)ethyl]phenyl]-3-hydroxy-α-oxo]
